# Laboratory results taken from the supplement of paper PMC11061612.
# What was measured:
# Assay in all cases: Bliss excess, mean over the matrix (fraction); higher = more synergy
# [1] = test system: 8305C (Thyroid Gland Carcinoma)
# Summary of the method: (§1)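 Cell lines in DMEM/F12 or RPMI with 10% FBS were plated in 1536-well plates, held 24 hours at 37°C, 5% CO2, then given two-drug dose matrices for 72 hours (DMSO typically 0.2%). Viability was read by CellTiter-Glo 2.0 luminescence and scaled as inhibition from 0 (vehicle wells) to 1 (blank wells). Combination Emax is the second-highest inhibition in the matrix; Bliss excess is observed combination effect minus expected EA + EB − EA·EB, EA and EB being single-agent effects.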
# [2] = test system: CAL-54 (Kidney Carcinoma)
# Summary of the method: as §1
# [3] = test system: HARA (Squamous Cell Lung Carcinoma)
# Summary of the method: as §1
# HMV-II (Melanoma) = test system: HMV-II (Melanoma)
# Summary of the method: as §1
# [4] = test system: HO-1-u-1 (Oral Cavity Carcinoma)
# Summary of the method: as §1
# [5] = test system: Hs-633T (Other Solid Carcinomas)
# Summary of the method: as §1
# [6] = test system: LU-139 (Small Cell Lung Carcinoma)
# Summary of the method: as §1
# [7] = test system: LoVo (Colorectal Carcinoma)
# Summary of the method: as §1
# Mewo (Melanoma) = test system: Mewo (Melanoma)
# Summary of the method: as §1
# NB14 (Neuroblastoma) = test system: NB14 (Neuroblastoma)
# Summary of the method: as §1
# NCI-H2795 (Mesothelioma) = test system: NCI-H2795 (Mesothelioma)
# Summary of the method: as §1
# NCI-H28 (Mesothelioma) = test system: NCI-H28 (Mesothelioma)
# Summary of the method: as §1
# [8] = test system: PCI-30 (Head and Neck Carcinoma)
# Summary of the method: as §1
# [9] = test system: RKO (Colorectal Carcinoma)
# Summary of the method: as §1
# [10] = test system: RPMI-6666 (Non-Cancerous)
# Summary of the method: as §1
# SH-4 (Melanoma) = test system: SH-4 (Melanoma)
# Summary of the method: as §1
# [11] = test system: SK-OV-3 (Ovarian Carcinoma)
# Summary of the method: as §1
# [12] = test system: SUP-T1 (T-Lymphoblastic Leukemia)
# Summary of the method: as §1
# [13] = test system: SW1116 (Colorectal Carcinoma)
# Summary of the method: as §1
# [14] = test system: SW1271 (Small Cell Lung Carcinoma)
# Summary of the method: as §1
Compound,Bliss excess [1],Bliss excess [2],Bliss excess [3],Bliss excess (HMV-II (Melanoma)),Bliss excess [4],Bliss excess [5],Bliss excess [6],Bliss excess [7],Bliss excess (Mewo (Melanoma)),Bliss excess (NB14 (Neuroblastoma)),Bliss excess (NCI-H2795 (Mesothelioma)),Bliss excess (NCI-H28 (Mesothelioma)),Bliss excess [8],Bliss excess [9],Bliss excess [10],Bliss excess (SH-4 (Melanoma)),Bliss excess [11],Bliss excess [12],Bliss excess [13],Bliss excess [14]
"N#Cc1cnc(Nc2cc(NC[C@H]3CNCCO3)c(C(F)(F)F)cn2)cn1 [SRA737] + CCc1c2c(nc3ccc(O)cc13)-c1cc3c(c(=O)n1C2)COC(=O)[C@]3(O)CC [SN-38] (first compound max 10 µM, 7x7, partner max 0.3 µM)",-0.0419,-0.0693,-0.0628,-0.0523,0.106,-0.0402,-0.0305,-0.0227,0.022,-0.0148,-0.0977,-0.104,-0.0079,-0.0398,-0.0707,-0.111,-0.0464,-0.0989,0.0312,-0.0752
"O=C(c1cc(Cc2n[nH]c(=O)c3ccccc23)ccc1F)N1CCN(C(=O)C2CC2)CC1 [Olaparib] + COc1nnc2ccc(N3CCC(c4ccc(OCCN5CCN(C)C(=O)[C@H]5C)cc4)CC3)nn12 [AZD5153] (first compound max 10 µM, 7x7, partner max 1 µM)",-0.0634,-0.0923,-0.0775,-0.046,-0.0022,0.0223,-0.0194,-0.0338,-0.074,-0.004,-0.085,-0.0529,-0.0144,-0.0893,-0.0487,-0.11,-0.0296,-0.0512,-0.0745,-0.0668
"C[C@@H](Nc1cc(F)cc(F)c1)c1cc(C(=O)N(C)C)cc2c(=O)cc(N3CCOCC3)oc12 [AZD8186] + CC(=O)c1c(C)c2cnc(Nc3ccc(N4CCNCC4)cn3)nc2n(C2CCCC2)c1=O [Palbociclib] (first compound max 10 µM, 7x7, partner max 10 µM)",0.0133,0.0039,0.0281,0.0265,0.0138,0.05,-0.025,-0.0314,-0.0155,0.075,0.0582,-0.0333,0.0121,0.0559,-0.0073,-0.0303,-0.0454,-0.0616,-0.0352,0.0035
"Cc1c2c(nn1C)CSCc1cc(n(C)n1)CSc1cc(c3ccccc3c1)OCCCc1c(C(=O)O)n(C)c3c-2c(Cl)ccc13 [AZD5991] + CC(=O)O[C@H]1C(=O)[C@@]2(C)[C@H]([C@H](OC(=O)c3ccccc3)[C@]3(O)C[C@H](OC(=O)[C@H](O)[C@@H](NC(=O)c4ccccc4)c4ccccc4)C(C)=C1C3(C)C)[C@]1(OC(C)=O)CO[C@@H]1C[C@@H]2O [Paclitaxel] (first compound max 1 µM, 7x7, partner max 3 µM)",-0.0118,-0.0639,-0.003,0.0547,0.214,0.005,-0.0361,-0.122,0.0103,-0.0212,0.044,-0.0549,0.115,0.0203,-0.0139,-0.0331,-0.028,-0.0847,-0.0379,-0.0228
"CC1(C)CCC(CN2CCN(c3ccc(C(=O)NS(=O)(=O)c4ccc(NCC5CCOCC5)c([N+](=O)[O-])c4)c(Oc4cnc5[nH]ccc5c4)c3)CC2)=C(c2ccc(Cl)cc2)C1 [Venetoclax] + CS(=O)(=O)CCNCc1ccc(-c2ccc3ncnc(Nc4ccc(OCc5cccc(F)c5)c(Cl)c4)c3c2)o1 [Lapatinib] (first compound max 1 µM, 7x7, partner max 10 µM)",-0.0112,-0.0788,-0.02,-0.045,0.0094,-0.0041,-0.0061,-0.0768,-0.0949,0.0606,-0.058,-0.0426,-0.0457,-0.0366,0.0423,-0.0489,-0.0032,-0.0249,-0.0129,-0.0239
"O=C(c1cc(Cc2n[nH]c(=O)c3ccccc23)ccc1F)N1CCN(C(=O)C2CC2)CC1 [Olaparib] + CN(CC[C@H](CSC1=CC=CC=C1)NC2=C(C=C(C=C2)S(=O)(=O)NC(=O)C3=CC=C(C=C3)N4CCC(CC4)[C@H](C5=CC=CC=C5C6=CC=C(C=C6)Cl)O)S(=O)(=O)C(F)(F)F)CCO [AZD4320] (first compound max 10 µM, 7x7, partner max 1 µM)",-0.0062,-0.0021,-0.0379,-0.0537,0.0123,0.0017,0.0154,-0.0225,-0.0615,0.0027,-0.0086,-0.0353,-0.0405,-0.0252,0.0694,-0.0505,-0.0672,-0.0301,-0.0404,-0.0291
"CN(CCO)CC[C@H](CSc1ccccc1)Nc1ccc(S(=O)(=O)NC(=O)c2ccc(N3CCC([C@@H](O)c4ccccc4-c4ccc(Cl)cc4)CC3)cc2)cc1S(=O)(=O)C(F)(F)F [AZD4320] + C[C@@H](Nc1cc(F)cc(F)c1)c1cc(C(=O)N(C)C)cc2c(=O)cc(N3CCOCC3)oc12 [AZD8186] (first compound max 1 µM, 7x7, partner max 3 µM)",0.0676,0.0533,0.0233,-0.0397,-0.0242,0.0082,-0.0107,0.0355,0.0471,0.0025,0.0426,0.0474,-0.0503,-0.0164,0.0298,-0.0042,0.0008,-0.0192,0.0353,-0.0447
"CN(CCO)CC[C@H](CSc1ccccc1)Nc1ccc(S(=O)(=O)NC(=O)c2ccc(N3CCC([C@@H](O)c4ccccc4-c4ccc(Cl)cc4)CC3)cc2)cc1S(=O)(=O)C(F)(F)F [AZD4320] + CC(=O)O[C@H]1C(=O)[C@@]2(C)[C@H]([C@H](OC(=O)c3ccccc3)[C@]3(O)C[C@H](OC(=O)[C@H](O)[C@@H](NC(=O)c4ccccc4)c4ccccc4)C(C)=C1C3(C)C)[C@]1(OC(C)=O)CO[C@@H]1C[C@@H]2O [Paclitaxel] (first compound max 1 µM, 7x7, partner max 3 µM)",0.0435,-0.0202,0.0253,0.101,0.254,0.0124,0.0242,-0.0406,0.0548,0.0064,0.0621,0.0394,0.177,0.0012,0.017,0.0813,0.254,-0.024,-0.101,0.108
"N#Cc1cnc(Nc2cc(NC[C@H]3CNCCO3)c(C(F)(F)F)cn2)cn1 [SRA737] + C=CCn1c(=O)c2cnc(Nc3ccc(N4CCN(C)CC4)cc3)nc2n1-c1cccc(C(C)(C)O)n1 [AZD1775] (first compound max 10 µM, partner max 1 µM)",0.0356,0.0005,0.0442,0.0015,0.0809,0.0888,-0.0015,0.0837,-0.0149,0.0644,0.0401,0.0829,0.116,0.0536,-0.0021,0.0688,-0.0357,-0.0003,-0.0119,-0.0045
"C[C@@H](Nc1cc(F)cc(F)c1)c1cc(C(=O)N(C)C)cc2c(=O)cc(N3CCOCC3)oc12 [AZD8186] + C1CN(CCC1(C(=O)N[C@@H](CCO)C2=CC=C(C=C2)Cl)N)C3=NC=NC4=C3C=CN4 [AZD5363] (first compound max 10 µM, 7x7, partner max 10 µM)",-0.0642,-0.0774,-0.0301,-0.0515,-0.073,-0.0205,-0.0299,-0.0372,-0.001,-0.0318,-0.106,-0.0165,-0.0443,0.0284,-0.086,-0.0317,-0.064,-0.0718,-0.0429,-0.0388
"C[C@@H]1COCCN1c1cc(C2([S@](C)(=N)=O)CC2)nc(-c2ccnc3[nH]ccc23)n1 [AZD6738] + Nc1ccn([C@@H]2O[C@H](CO)[C@@H](O)C2(F)F)c(=O)n1 [Gemcitabine] (first compound max 10 µM, 7x7, partner max 0.3 µM)",0.0252,0.0372,0.0343,-0.0112,0.061,0.0444,0.0146,-0.0243,0.0475,0.04,-0.0533,0.0086,0.0539,-0.0088,-0.034,-0.0029,0.0331,0.0041,0.0575,0.004
"CN(CCO)CC[C@H](CSc1ccccc1)Nc1ccc(S(=O)(=O)NC(=O)c2ccc(N3CCC([C@@H](O)c4ccccc4-c4ccc(Cl)cc4)CC3)cc2)cc1S(=O)(=O)C(F)(F)F [AZD4320] + CS(=O)(=O)CCNCc1ccc(-c2ccc3ncnc(Nc4ccc(OCc5cccc(F)c5)c(Cl)c4)c3c2)o1 [Lapatinib] (first compound max 1 µM, 7x7, partner max 10 µM)",-0.0526,0.0171,0.027,-0.0663,0.0591,-0.0023,0.0054,-0.0216,-0.0386,0.0356,0.0148,0.0075,0.0067,0.0405,-0.0208,-0.0411,-0.0007,0.0226,0.0117,-0.0178
"O=C(c1cc(Cc2n[nH]c(=O)c3ccccc23)ccc1F)N1CCN(C(=O)C2CC2)CC1 [Olaparib] + CC1(C)CCC(CN2CCN(c3ccc(C(=O)NS(=O)(=O)c4ccc(NCC5CCOCC5)c([N+](=O)[O-])c4)c(Oc4cnc5[nH]ccc5c4)c3)CC2)=C(c2ccc(Cl)cc2)C1 [Venetoclax] (first compound max 10 µM, 7x7, partner max 1 µM)",-0.0213,-0.0496,-0.0206,-0.0468,-0.0275,-0.0018,0.0408,-0.038,-0.0766,0.0052,-0.0329,-0.0273,-0.0425,-0.0151,0.134,-0.0355,-0.0472,-0.0572,-0.0429,-0.0258
